Assay results: US20100069339A1, “NOVEL METHOD OF TREATMENT OF MALE SUB-FERTILITY” (BIOXELL S.P.A., priority 2006, published 2010)
Entries after “also recorded” stand apart in the source; their conditions may differ.

Experiments:
[1] = test system: matrix metalloproteinase MMP2; assay: Sandwich ELISA of seminal plasma MMP2 in trial patients; format: in vivo, human; conditions: CP/CPPS patients, treatment vs placebo
Excerpt: (§1) A sandwich ELISA system was used to re-evaluate seminal plasma IL-8 level in 27 Placebo-treated and 29 Compound A—treated patients from the trial described in Biological Example 5 and to extend the analysis to other inflammatory mediators. Note that TIMP-1 is an inhibitor of an inflammatory marker.

[2] = test system: soluble pattern recognition receptor PTX3; assay: Sandwich ELISA of seminal plasma PTX3 in trial patients; format: in vivo, human; conditions: CP/CPPS patients, treatment vs placebo
Excerpt: as §1

[3] = test system: IL-8; assay: Seminal IL-8 in CP/CPPS patients, randomized double-blind placebo controlled study; format: in vivo, human
Excerpt: We conducted a randomized, double-blind placebo controlled study in 121 patients with CP/CPPS. The primary objective of the study was to evaluate the effect of Compound A(150 mcg/die) after three months of treatment on the NIH score, a score encompassing pain, quality of life and lower urinary tract symptoms. As a secondary endpoint, we measured IL8 in the semen at baseline and at the end of the treatment.

[4] = test system: human BPH cells; assay: Inhibition of IL-8 production in human BPH cells by vitamin D compounds; format: cell-based; conditions: BPH cells stimulated with IL-17 10 ng/ml and interferon gamma 10 ng/ml; compounds at 1, 10 and 100 nM, 72 hours; ELISA
Protocol: Approximately 2000 human BPH cells were placed in wells of a standard 96 well plate and stimulated for 72 hours with IL-17 at 10 ng/ml and interferon gamma at 10 ng/ml and incubated with vitamin D compounds individually at concentrations of 1, 10 and 100 nM for 72 hours IL-8 production by the cells was measured by conventional two-site ELISA using human IL-8 ELISA set (BD Biosciences, San Diego, Calif.) according to the manufacturer's instructions.

[5] = test system: tissue inhibitor of metalloproteinase TIM-1; assay: Sandwich ELISA of seminal plasma TIM-1 in trial patients; format: in vivo, human; conditions: CP/CPPS patients, treatment vs placebo
Excerpt: as §1

[6] = test system: CCL2/MCP-1; assay: Sandwich ELISA of seminal plasma CCL2/MCP-1 in trial patients; format: in vivo, human; conditions: CP/CPPS patients, treatment vs placebo
Excerpt: as §1

[7] = test system: IL-8; assay: Sandwich ELISA re-evaluation of seminal plasma IL-8 in trial patients; format: in vivo, human; conditions: 29 Compound A-treated vs 27 Placebo-treated patients, p=0.002
Excerpt: as §1

[8] = test system: BPH cells; conditions: cited from earlier work

## C=C1/C(=C\C=C2/CCC[C@]3(C)C([C@@H](C)C/C=C/C(O)(CC)CC)=CC[C@@H]23)C[C@@H](O)C[C@@H]1F [Compound A, 1-alpha-fluoro-25-hydroxy-16,23E-diene-26,27-bishomo-20-epi-cholecalciferol]
[1]
  MMP2 level in seminal plasma: decreased
[2]
  PTX3 level in seminal plasma: decreased
[3]; 150 mcg/die, after 12 weeks
  IL-8 levels in the semen vs. placebo: significantly reduce; also recorded: can lower seminal IL-8 levels in human patients
[3]; 150 mcg/die, week 12
  Seminal IL-8, % Change vs Baseline Week 12, 25th perc.: −42.37%
  Seminal IL-8, % Change vs Baseline Week 12, 75th perc.: 1.05%
  Seminal IL-8, % Change vs Baseline Week 12, Max: 89.48%
  Seminal IL-8, % Change vs Baseline Week 12, Mean: −19.33%
  Seminal IL-8, % Change vs Baseline Week 12, Median: −19.17%
  Seminal IL-8, % Change vs Baseline Week 12, Min: −61.82%
  Seminal IL-8, Abs Change vs Baseline Week 12, 25th perc.: −723.00
  Seminal IL-8, Abs Change vs Baseline Week 12, 75th perc.: 12.50
  Seminal IL-8, Abs Change vs Baseline Week 12, Max: 604.00
  Seminal IL-8, Abs Change vs Baseline Week 12, Mean: −368.34
  Seminal IL-8, Abs Change vs Baseline Week 12, Median: −358.00
  Seminal IL-8, Abs Change vs Baseline Week 12, Min: −1264.00
  Seminal IL-8, Week 12, 25th perc.: 809.50
  Seminal IL-8, Week 12, 75th perc.: 1394.00
  Seminal IL-8, Week 12, Max: 2599.00
  Seminal IL-8, Week 12, Mean: 1172.57
  Seminal IL-8, Week 12, Median: 985.50
  Seminal IL-8, Week 12, Min: 386.00
[3]; before treatment
  Seminal IL-8, Baseline, 25th perc.: 947.50
  Seminal IL-8, Baseline, 75th perc.: 1903.50
  Seminal IL-8, Baseline, Max: 3015.00
  Seminal IL-8, Baseline, Mean: 1486.43
  Seminal IL-8, Baseline, Median: 1376.50
  Seminal IL-8, Baseline, Min: 468.00
[4]
  IL-8 production (IL-8 concentration): can lower IL-8 levels in vitro
[5]
  TIM-1 level in seminal plasma: enhanced
[6]
  CCL2/MCP-1 level in seminal plasma: decreased
[7]
  seminal plasma IL-8 levels compared to placebo: Significantly reduced

## C=C1CC[C@H](O)C/C1=C/C=C1\CCC[C@]2(C)[C@@H]([C@H](C)CCCC(C)C)CC[C@@H]12 [vitamin D3, 9,10-secocholesta-5,7,10(19)-trien-3B-ol]
[8]
  BPH cell proliferation: inhibited
[8]; keratinocyte growth factor (KGF) and insulin-like growth factor (IGF1)
  mitogenic activity of growth factors for BPH cells: counteracted
